# Test results published in PubChem BioAssay (NCI).
#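 Where inhibition never reached the appropriate level, the endpoint shown equals the highest concentration tested. Otherwise, values were interpolated linearly from a five-concentration, 48-hour dose response in 96-well plates. TGI marks complete inhibition of growth.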
# Key:
# Experiment in all cases: NCI tumour cell line growth inhibition, 48 h
# [1] = test system: SR leukemia
# [2] = test system: COLO 205 colon
# [3] = test system: UACC-62 melanoma
# [4] = test system: OVCAR-4 ovarian
# [5] = test system: KM20L2 colon
# [6] = test system: TK-10 renal
# [7] = test system: 786-0 renal
# [8] = test system: MOLT-4 leukemia
# [9] = test system: DMS 114 small cell lung
# [10] = test system: SF-539 CNS
# [11] = test system: UO-31 renal
# [12] = test system: CAKI-1 renal
# [13] = test system: NCI-H23 lung
# [14] = test system: HOP-62 NSCLC
# [15] = test system: SK-MEL-28 melanoma
# [16] = test system: M14 melanoma
# [17] = test system: SW-620 colon
# [18] = test system: OVCAR-3 ovarian
# [19] = test system: NCI-H460 lung
# [20] = test system: HCT-116 colon
# [21] = test system: SK-MEL-5 melanoma
# [22] = test system: SK-OV-3 ovarian
# [23] = test system: DMS 273 small cell lung
# [24] = test system: SK-MEL-2 melanoma
# [25] = test system: HOP-92 NSCLC
# [26] = test system: SN12C renal
# [27] = test system: KM12 colon
# [28] = test system: HCC-2998 colon
# [29] = test system: HT29 colon
# [30] = test system: K-562 leukemia
# [31] = test system: RXF 393 renal
# [32] = test system: LOX IMVI melanoma
# [33] = test system: OVCAR-8 ovarian
# [34] = test system: SNB-78 CNS
# [35] = test system: MALME-3M melanoma
# [36] = test system: A498 renal
# [37] = test system: HL-60(TB) leukemia
# [38] = test system: CCRF-CEM leukemia
# [39] = test system: RPMI-8226 leukemia
# [40] = test system: U251 CNS
# [41] = test system: NCI-H522 lung
# [42] = test system: SF-268 CNS
# [43] = test system: HCT-15 colon
# [44] = test system: LXFL 529 NSCLC
# [45] = test system: ACHN renal
# [46] = test system: SNB-75 CNS
# [47] = test system: EKVX NSCLC
# [48] = test system: SNB-19 CNS
# [49] = test system: UACC-257 melanoma
# [50] = test system: SF-295 CNS
# [51] = test system: IGROV1 ovarian
# [52] = test system: M19-MEL melanoma
# [53] = test system: A549 NSCLC
# [54] = test system: DLD-1 colon
# [55] = test system: XF 498 CNS
# [56] = test system: OVCAR-5 ovarian
# [57] = test system: NCI-H226 lung
# [58] = test system: HOP-18 NSCLC
smiles,measurement,setting,value
CCCCCCCC(=O)OCC1OC(n2cc(F)c(=O)[nH]c2=O)C(NC(=O)OCc2ccccc2)C(O)C1O (stereo not given),TGI,[1],> 100 µM
same,TGI,[2],> 100 µM
same,TGI,[3],> 100 µM
same,TGI,[4],> 100 µM
same,TGI,[5],> 100 µM
same,TGI,[6],> 100 µM
same,TGI,[7],> 100 µM
same,TGI,[8],> 100 µM
same,TGI,[9],> 100 µM
same,TGI,[10],> 100 µM
same,TGI,[11],> 100 µM
same,TGI,[12],> 100 µM
same,TGI,[13],> 100 µM
same,TGI,[14],> 100 µM
same,TGI,[15],> 100 µM
same,TGI,[16],> 100 µM
same,TGI,[17],> 100 µM
same,TGI,[18],> 100 µM
same,TGI,[19],> 100 µM
same,TGI,[20],> 100 µM
same,TGI,[21],23.7 µM
same,TGI,[22],> 100 µM
same,TGI,[23],> 100 µM
same,TGI,[24],53.5 µM
same,TGI,[25],65.2 µM
same,TGI,[26],> 100 µM
same,TGI,[27],> 100 µM
same,TGI,[28],52.2 µM
same,TGI,[29],> 100 µM
same,TGI,[30],> 100 µM
same,TGI,[31],> 100 µM
same,TGI,[32],> 100 µM
same,TGI,[33],> 100 µM
same,TGI,[34],> 100 µM
same,TGI,[35],> 100 µM
same,TGI,[36],> 100 µM
same,TGI,[37],> 100 µM
same,TGI,[38],> 100 µM
same,TGI,[39],91.7 µM
same,TGI,[40],> 100 µM
same,TGI,[41],92 µM
same,TGI,[42],> 100 µM
same,TGI,[43],> 100 µM
same,TGI,[44],> 100 µM
same,TGI,[45],> 100 µM
same,TGI,[46],> 100 µM
same,TGI,[47],> 100 µM
same,TGI,[48],> 100 µM
same,TGI,[49],> 100 µM
same,TGI,[50],> 100 µM
same,TGI,[51],> 100 µM
same,TGI,[52],> 100 µM
same,TGI,[53],> 100 µM
Cc1ccc(S(=O)(=O)C2c3nc4ccccc4cc3-c3nc4ccccc4nc32)cc1 (stereo not given),TGI,[1],> 100 µM
same,TGI,[2],> 100 µM
same,TGI,[3],> 100 µM
same,TGI,[4],> 100 µM
same,TGI,[5],> 100 µM
same,TGI,[6],> 100 µM
same,TGI,[7],> 100 µM
same,TGI,[8],> 100 µM
same,TGI,[9],> 100 µM
same,TGI,[10],> 100 µM
same,TGI,[11],> 100 µM
same,TGI,[12],> 100 µM
same,TGI,[13],> 100 µM
same,TGI,[14],> 100 µM
same,TGI,[15],> 100 µM
same,TGI,[16],> 100 µM
same,TGI,[17],> 100 µM
same,TGI,[54],> 100 µM
same,TGI,[18],> 100 µM
same,TGI,[20],> 100 µM
same,TGI,[21],> 100 µM
same,TGI,[22],> 100 µM
same,TGI,[23],> 100 µM
same,TGI,[24],> 100 µM
same,TGI,[25],> 100 µM
same,TGI,[26],> 100 µM
same,TGI,[27],> 100 µM
same,TGI,[28],> 100 µM
same,TGI,[30],> 100 µM
same,TGI,[32],> 100 µM
same,TGI,[33],> 100 µM
same,TGI,[34],> 100 µM
same,TGI,[35],> 100 µM
same,TGI,[36],> 100 µM
same,TGI,[37],> 100 µM
same,TGI,[38],> 100 µM
same,TGI,[39],> 100 µM
same,TGI,[40],> 100 µM
same,TGI,[55],> 100 µM
same,TGI,[41],> 100 µM
same,TGI,[42],> 100 µM
same,TGI,[43],> 100 µM
same,TGI,[44],> 100 µM
same,TGI,[45],> 100 µM
same,TGI,[46],> 100 µM
same,TGI,[56],> 100 µM
same,TGI,[47],> 100 µM
same,TGI,[48],> 100 µM
same,TGI,[49],> 100 µM
same,TGI,[51],> 100 µM
same,TGI,[52],> 100 µM
same,TGI,[53],> 100 µM
CCCCN=C(NC#N)N(Cc1ccccc1)Cc1ccccc1,TGI,[2],32.5 µM
same,TGI,[3],34.8 µM
same,TGI,[4],> 100 µM
same,TGI,[5],52.4 µM
same,TGI,[6],> 100 µM
same,TGI,[7],> 100 µM
same,TGI,[8],48.5 µM
same,TGI,[10],48.2 µM
same,TGI,[11],58 µM
same,TGI,[12],66.4 µM
same,TGI,[13],77.4 µM
same,TGI,[14],62 µM
same,TGI,[15],81.2 µM
same,TGI,[57],> 100 µM
same,TGI,[16],53.3 µM
same,TGI,[17],30.4 µM
same,TGI,[54],36.4 µM
same,TGI,[58],> 100 µM
same,TGI,[18],64.8 µM
same,TGI,[19],> 100 µM
same,TGI,[20],39.5 µM
same,TGI,[21],26.1 µM
same,TGI,[22],87.6 µM
same,TGI,[23],37.1 µM
same,TGI,[24],36.8 µM
same,TGI,[25],45.5 µM
same,TGI,[26],82 µM
same,TGI,[27],> 100 µM
same,TGI,[28],62.1 µM
same,TGI,[29],28.7 µM
same,TGI,[30],88.1 µM
same,TGI,[31],65.5 µM
same,TGI,[32],29.7 µM
same,TGI,[33],> 100 µM
same,TGI,[34],> 100 µM
same,TGI,[35],> 100 µM
same,TGI,[36],63.7 µM
same,TGI,[37],49.6 µM
same,TGI,[38],49.2 µM
same,TGI,[39],40.8 µM
same,TGI,[40],81.3 µM
same,TGI,[41],31.1 µM
same,TGI,[42],> 100 µM
same,TGI,[43],29.8 µM
same,TGI,[44],32.8 µM
same,TGI,[45],98.8 µM
same,TGI,[46],> 100 µM
same,TGI,[56],87.5 µM
same,TGI,[47],74.9 µM
same,TGI,[48],> 100 µM
same,TGI,[49],64.9 µM
same,TGI,[50],63.2 µM
same,TGI,[51],74.4 µM
same,TGI,[52],35.8 µM
same,TGI,[53],> 100 µM
